This note sets out measurements from PubChem BioAssay (NCI).

SMILES strings stand for the structures.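 Tested at 5 concentrations; 48 h exposure; 96-well plates; endpoints linearly interpolated, else capped at highest concentration. The concentration for full growth arrest is given as TGI.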 Some results are limits rather than exact numbers.

Experiment in all cases: NCI tumour cell line growth inhibition, 48 h
The subject of test [1] is SF-268 CNS.
In test [2] the test system is OVCAR-4 ovarian.
The subject of test [3] is HT29 colon.
The subject of test [4] is RXF 393 renal.
The test system of test [5] is ACHN renal.
The subject of test [6] is K-562 leukemia.
Test [7] deals with NCI-H460 lung.
The subject of test [8] is A498 renal.
Test [9] deals with HL-60(TB) leukemia.

Turning to `Cc1cc2c(=O)c3ccccc3[nH]c2c(C(N)=O)c1C`, the TGI in [1], in [2], in [3], in test [4], in [5] and in test [6] was greater than 100 µM throughout. This compound displayed a TGI in test [7] greater than 100 µM.

Turning to `CCOC(=O)c1ccc(/C(C)=N/NC(N)=S)cc1`, the TGI in [8], in [2], in [4], in test [5], in test [9] and in test [6] was greater than 100 µM in each case. For the same compound, the TGI in test [7] was greater than 100 µM.

Turning to `COc1cc(OC)c2c(=O)cc(-c3ccc(OC)c(OC)c3OC)oc2c1`, the TGI in [1], in test [2], in test [3], in test [4], in test [5] and in test [9] was greater than 100 µM each time. In test [6], this compound gave a TGI greater than 100 µM.

Turning to `O=C(OC1CCC(=C2SCCCS2)[C@H]1C1SCCCS1)c1ccccc1` (some centres not stated), the TGI in [8], in test [2], in test [3], in test [4], in test [5] and in test [9] was greater than 100 µM each time. The TGI in [6] and in test [7] was greater than 100 µM throughout.

Turning to `O=C(CC1C(=O)Nc2ccccc2S1=O)Nc1cc(Cl)ccc1Cl` (configuration not stated), the TGI in test [8], in test [1], in test [3], in [4], in test [5] and in [9] was greater than 100 µM in each case. The TGI in [6] and in test [7] was greater than 100 µM throughout.

As for `C=CCCCCC1CCC2CCC(CCCCC=C)N12` (configuration not stated), the TGI in test [1] was 29.8 µM; in test [2], 26.3 µM; in test [3] it was 25.5 µM; in test [5], 28.5 µM; in test [9], 36.5 µM; in test [6], 42.1 µM. For the same compound, the TGI in [7] stood at 26.2 µM.

For `Cc1ccc2nc(/C(=C/c3ccc(/C=C(\NC(=O)c4ccccc4)c4nc5ccc(C)cc5[nH]4)c(C)c3)NC(=O)c3ccccc3)[nH]c2c1`, the TGI in [8] was 53.6 µM; in [1] it was greater than 100 µM; in [3], greater than 100 µM; in test [5], greater than 100 µM; in test [6], 45.4 µM; in [7] it was 35.8 µM.

Consider `O=C(Nc1cccc(Cl)c1)C(=O)C(C(=O)c1ccc2ccccc2c1)C1OC(=O)c2ccccc21` (configuration not stated), for which the TGI in test [1] was 57.5 µM; in test [2], 33 µM; in [3] it was 84.5 µM; in test [5], 82.7 µM; in test [9] it was 40.7 µM; in [6] it was 70.2 µM. Further, in test [7], the TGI amounted to 30.5 µM.

Take `COC(=O)C(=Cc1cc(OC)c(OC)c(OC)c1-c1cc2c(cc1C1(C)OCCS1)OCO2)C(=O)OC` (configuration not stated): the TGI in test [1], in test [3], in test [4], in test [5], in test [9] and in [6] was greater than 100 µM each time. This compound came in with a TGI in test [7] greater than 100 µM.

In the case of `CC12CCC(=O)C[C@H]1CCC(OC=O)C2Br` (some centres not stated), the TGI in test [8], in [1], in [2], in [3], in test [5] and in test [9] was greater than 100 µM each time. The TGI in test [6] and in [7] was greater than 100 µM each time.

As to `COc1c(O)c2c(=O)cc3c4c5c(cc(=O)c6c(O)c(OC)c(CC(C)O)c(c(c1CC(C)O)c24)c65)OCO3` (configuration not stated), the TGI is 5.97 µM in test [1]; 2.74 µM in test [2]; 8.58 µM in test [3]; 4.03 µM in test [4]; 5.96 µM in test [5]; 5.1 µM in test [9]. The TGI was determined as 43.3 µM in [6] and 2.32 µM in [7].

On to `Cc1nc(Nc2ccc(Cl)cc2)sc1C(=O)NNC(=S)NN`, for which the TGI in [8] turned out to be 29.1 µM; in test [1] it was 48.5 µM; in test [2] it was 32.7 µM; in [4], 27.6 µM; in [5], 45.7 µM; in [9], 50.2 µM. Further, the TGI in [6] came to 99 µM; in test [7], 38.3 µM.

With `CN(C)CCC(/C=C/c1ccccc1)=N\Nc1ccccc1`, the TGI in [8] came out at 28.2 µM; in test [1] it was 10.4 µM; in [2], 17.1 µM; in test [3], 15.4 µM; in test [4], 18.6 µM; in test [5], 2.31 µM. In addition, the TGI in test [9] came to 4.28 µM; in test [6], 10.5 µM; in test [7], 10.7 µM.

`O=C(/C(=C/c1ccc(Cl)cc1)c1ccccc1)c1ccccc1`: the TGI in [8] amounted to 44.9 µM; in test [1] it was 41.8 µM; in [2], 66.9 µM; in [3] it was 38.4 µM; in test [5], 39.5 µM; in test [9], 66.5 µM. Further, the results for the TGI in test [6] and in test [7] were greater than 100 µM and 34.8 µM, respectively.

On to `Cc1ccccc1C(=O)c1cc(O)ccc1O`, for which the TGI in test [8], in [1], in test [2], in test [3], in test [4] and in test [5] was greater than 100 µM throughout. Moreover, the TGI in [9], in test [6] and in test [7] was greater than 100 µM throughout.

Consider `N#CC(C(=O)/C(=N\NC(N)=O)C(C#N)c1ccc(Cl)cc1)c1ccc(Cl)cc1` (configuration not stated), for which the TGI in test [8], in [1], in test [2], in test [3], in test [4] and in test [5] was greater than 100 µM each time. Further, the TGI in [9], in test [6] and in [7] was greater than 100 µM throughout.

As for `C/C(CC(=O)Nc1ccc(C)c(C)c1)=N\N(c1ccccc1)c1ccccc1`, the TGI in [8], in test [1], in test [2], in [3], in [4] and in test [5] was greater than 100 µM throughout. Moreover, the figures for the TGI in test [9], in test [6] and in test [7] were greater than 100 µM, 68.9 µM and greater than 100 µM, respectively.

Consider `CCCCCCCCCCCCCCCC(=O)OCCOCCOCCOCc1ccccc1`, for which the TGI in test [8], in test [1], in [2], in test [3], in test [4] and in test [5] was greater than 100 µM each time. Also, the TGI in [7] was greater than 100 µM.

Regarding `C#CC1/C(=C\C(=O)OC)CCCC1O` (configuration not stated), the TGI in [8], in test [1], in test [2], in [3], in [4] and in [5] was greater than 100 µM each time. Moreover, the TGI in test [9], in [6] and in [7] was greater than 100 µM throughout.

Turning to `CC(C)(C)c1cc(C(P(=O)(O)O)P(=O)(O)O)cc(C(C)(C)C)c1O`, the TGI in test [8], in [1], in [2], in [3], in [5] and in test [9] was greater than 100 µM throughout. In addition, the TGI in test [6] and in test [7] was greater than 100 µM each time.

Consider `Cc1ccc(C)c(NC(=O)c2cccc([N+](=O)[O-])c2O)c1`, for which the TGI was 80.9 µM in test [8]; greater than 100 µM in test [1]; 80.8 µM in test [2]; greater than 100 µM in test [3]; 37.8 µM in test [4]; 57.6 µM in [5]. In addition, the TGI in test [9] was greater than 100 µM; in [6] it was greater than 100 µM; in [7], 68.4 µM.

Take `O=C1N=C2Sc3ccc4ccccc4c3N2C1=O`: the TGI is 52.3 µM in [1]; 32.7 µM in test [2]; 96.7 µM in test [3]; 37 µM in test [4]; 82.3 µM in test [5]; greater than 100 µM in [9]. Besides, the TGI in test [6] is greater than 100 µM; in test [7], 70.2 µM.

Take `COC(=O)/C(=C/c1ccc(OC)cc1)C(C(=O)O)=C1CCCC1`: the TGI in test [8], in test [2], in test [3], in test [4], in test [5] and in test [9] was greater than 100 µM each time. Also, the TGI in test [6] and in [7] was greater than 100 µM in each case.

As to `COc1ccc(OCC(=O)O)c2c1CCCC2=O`, the TGI in test [8], in test [1], in test [2], in test [3], in test [4] and in test [5] was greater than 100 µM in each case. In addition, the TGI in test [9], in test [6] and in [7] was greater than 100 µM throughout.

Turning to `CN(C)C(=S)/N=c1\sn(C)/c(=N\C(=S)N(C)C)n1C`, the TGI in [8], in test [1], in test [2], in test [3], in test [4] and in [5] was greater than 100 µM throughout. Further, the TGI in test [9], in [6] and in test [7] was greater than 100 µM each time.

For the compound `COC(=O)/C(C#N)=C1\N=NNN1c1ccc(OC)cc1`, the TGI in test [8], in test [3], in [4], in test [5], in test [6] and in test [7] was greater than 100 µM throughout.

On to `COc1ccc2c(c1OCC(=O)O)C(=O)C(CCC(=O)O)CC2` (configuration not stated), for which the TGI in test [8], in test [2], in test [3], in [4], in test [5] and in [9] was greater than 100 µM in each case. In addition, the TGI in test [7] is greater than 100 µM.

Consider `COC1C(OC(=S)Nc2ccccc2)c2ccccc2N1C(C)=O` (configuration not stated), for which the TGI in [8], in test [2], in [3], in test [4], in test [5] and in [9] was greater than 100 µM throughout. The TGI in test [6] and in test [7] was greater than 100 µM throughout.

For the compound `CC(C)C1=Cc2ccc3c(c2C(=O)C1=O)CCCC3(C)C`, the TGI in [8] came to 34 µM; in test [1] it was 20.2 µM; in test [2] it was 3.48 µM; in test [3], 46.2 µM; in test [4], 3.86 µM; in test [5], 13 µM. The TGI in test [9] was greater than 100 µM; in [6], greater than 100 µM; in test [7], 37 µM.

Consider `COc1ccc(CCN(C)C2CCC(C#N)(c3ccc(OC)c(OC)c3)CC2)cc1OC` (configuration not stated), for which the TGI in test [1], in test [2], in test [3], in test [4], in [5] and in test [9] was greater than 100 µM each time. In addition, the TGI in test [6] and in [7] was greater than 100 µM in each case.

`CC1(C)COC(c2cccc3c2C(=O)c2cccc(Cl)c2-3)=N1`: the TGI is greater than 100 µM in [8]; greater than 100 µM in test [1]; greater than 100 µM in test [2]; greater than 100 µM in [3]; 68.2 µM in test [4]; greater than 100 µM in [5]. In addition, the TGI in [9], in test [6] and in test [7] was greater than 100 µM throughout.

Consider `c1ccc2c(OCCSCCCCCCCCCCSCCOc3cccc4ccccc34)cccc2c1`, for which the TGI in test [8], in test [1], in [3], in test [4], in test [5] and in [9] was greater than 100 µM throughout. The TGI in test [6] and in [7] was greater than 100 µM in each case.

As to `CSc1nc(SC)c2c(C#N)[nH]nc2n1`, the TGI in [8], in test [1], in test [2], in test [3], in test [4] and in test [5] was greater than 100 µM each time. For the same compound, the TGI in [6] and in test [7] was greater than 100 µM throughout.
